Assay results: patent publication EP4678634A1, “ANDROGEN RECEPTOR MODULATORS AND USES THEREOF” (Haihe Biopharma Co., Ltd., priority 2023, dated 2024)

Target: T1, Androgen receptor (AR) (Homo sapiens, UniProt P10275)
T1 construct: expressed in transfected cells; host or cells: HEK293T (AR+ARE/Luc)
T1 sequence (P10275 1-920): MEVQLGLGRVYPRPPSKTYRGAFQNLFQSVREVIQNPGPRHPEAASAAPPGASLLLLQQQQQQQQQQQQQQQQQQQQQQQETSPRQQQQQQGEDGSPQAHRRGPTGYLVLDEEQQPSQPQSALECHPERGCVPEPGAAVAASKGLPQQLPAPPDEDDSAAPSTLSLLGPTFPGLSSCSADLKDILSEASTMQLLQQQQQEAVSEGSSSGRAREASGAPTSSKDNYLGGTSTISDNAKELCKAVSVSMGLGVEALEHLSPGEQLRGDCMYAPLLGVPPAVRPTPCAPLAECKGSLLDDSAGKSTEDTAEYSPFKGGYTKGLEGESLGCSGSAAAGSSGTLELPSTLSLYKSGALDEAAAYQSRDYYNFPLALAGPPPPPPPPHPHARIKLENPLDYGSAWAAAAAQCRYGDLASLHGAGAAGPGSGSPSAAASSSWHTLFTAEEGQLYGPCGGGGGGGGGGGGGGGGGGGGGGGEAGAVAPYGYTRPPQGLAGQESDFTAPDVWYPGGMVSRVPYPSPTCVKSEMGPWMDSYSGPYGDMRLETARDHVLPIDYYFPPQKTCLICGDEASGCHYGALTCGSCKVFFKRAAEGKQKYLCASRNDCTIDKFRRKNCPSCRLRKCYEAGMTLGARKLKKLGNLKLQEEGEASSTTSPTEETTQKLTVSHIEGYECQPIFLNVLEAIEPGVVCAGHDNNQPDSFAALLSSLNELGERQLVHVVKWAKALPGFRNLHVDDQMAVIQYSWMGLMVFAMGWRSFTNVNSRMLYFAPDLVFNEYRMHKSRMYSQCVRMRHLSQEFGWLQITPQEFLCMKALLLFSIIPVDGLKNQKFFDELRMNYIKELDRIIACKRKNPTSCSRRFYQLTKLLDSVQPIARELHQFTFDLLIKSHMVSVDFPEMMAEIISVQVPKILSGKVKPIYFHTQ
Assay: Androgen receptor (AR) reporter gene assay (luciferase)
Format: cell-based
Conditions: AR+ARE/Luc HEK293T cells, stimulated with 11-KDHT, 24h incubation, Bright-Lite luminescence; read-out: HEK293 Luc IC50
Description: Androgen receptor (AR) reporter gene assay
Experimental reagents: 11-Ketodihydrotestosterone (11-KDHT) was purchased from MCE (cat.HY-135794); Enzalutamide (MDV3100) was purchased from Selleck (cat.S1250); Bright-Lite Luciferase Assay kit was purchased from Vazyme (cat.DD1204-01);
• 1. dissolve the described compounds in 100% DMSO at a final concentration of 10 mM. 100 nL each of 400X compound to be tested and 400X 11-KDHT (40 nM) were added to a 384-well assay plate with Echo, followed by 20 µL of complete medium, and centrifuged at 1000 rpm for 1 min, and oscillated for 20-30 min at room temperature. • 2. 20 µL of AR+ARE/Luc HEK293T cells (10,000 cells/well) were inoculated into the assay plate containing the compounds and 11-KDHT, and centrifuged at 1000 rpm for 1 min. The assay plate was incubated in a 37 °C CO2 incubator for 24h. • 3. 40 µL of Bright-Lite assay reagent was transferred to each well of the assay plate, centrifuged at 1000 rpm for 1 min, and shaken for 2 min at room temperature protected from light. Luminescence values (RLU) were measured using Envision. Based on the results, the IC50 values of the compounds described were calculated. Table 1 HEK293-Luc% inhibition IC50 of representative compounds

CN1CCc2c(cc(Cl)c(OCCCl)c2Cl)C1c1ccc2[nH]ncc2c1 (racemic) [HANT-146, 5,7-dichloro-6-(2-chloroethoxy)-1-(1H-indazol-5-yl)-2-methyl-1,2,3,4-tetrahydroisoquinoline] and ClCCOc1c(Cl)cc2c(c1Cl)CCCC2c1ccc2[nH]ncc2c1 (stereo not drawn) [HANT-100, 5-(5,7-dichloro-6-(2-chloroethoxy)-1,2,3,4-tetrahydronaphthalen-1-yl)-1H-indazole] fall in the same range of IC50: 1 to 500 nM for the first, 1 to 500 nM for the second.

N#Cc1cc2c(c(Cl)c1OCCCl)CCCC2Nc1cnc2[nH]ncc2c1 (racemic) [HANT-192, 8-((1H-pyrazolo[3,4-b]pyridin-5-yl)amino)-4-chloro-3-(2-chloroethoxy)-5,6,7,8-tetrahydronaph thalene-2-carbonitrile] and N#Cc1cc2c(c(Cl)c1OCCCl)CCCC2c1cnc2[nH]ncc2c1 (stereo not drawn) [HANT-150A, 4-chloro-3-(2-chloroethoxy)-8-(1H-pyrazolo[3,4-b]pyridin-5-yl)-5,6,7,8-tetrahydronaphthalene-2-carbonitrile] fall in the same range of IC50: 1 to 500 nM for the first, 1 to 500 nM for the second.

First: N#Cc1cc2c(c(Cl)c1OCCCl)CCCC2c1cnc(N)nc1 (racemic) [HANT-204]
Second: N#Cc1cc2c(c(Cl)c1OCCCl)CCCC2c1cnc2[nH]ncc2c1 (stereo not drawn) [HANT-150B, 4-chloro-3-(2-chloroethoxy)-8-(1H-pyrazolo[3,4-b]pyridin-5-yl)-5,6,7,8-tetrahydronaphthalene-2-carbonitrile]
The IC50 of the first is lower: 1 to 500 nM for the first, > 2000 nM for the second. The first is the more potent here.

Compared with Oc1ccc(C2CCCc3c2cc(Cl)c(OCCCl)c3Cl)cn1 (stereo not drawn) [HANT-101], Oc1ccc(C2CCCc3c2cc(Cl)c(OCCCl)c3Cl)nc1 (stereo not drawn) [HANT-102, 6-(5,7-dichloro-6-(2-chloroethoxy)-1,2,3,4-tetrahydronaphthalen-1-yl)pyridin-3-ol] is lower in IC50: 1000 to 2000 nM for the first, 500 to 1000 nM for the second.

First: Fc1cc2c(c(F)c1OCCCl)CCCC2c1ccc2[nH]ncc2c1 (stereo not drawn) [HANT-103, 5-(6-(2-chloroethoxy)-5,7-difluoro-1,2,3,4-tetrahydronaphthalen-1-yl)-1H indazole]
Second: ClCCOc1c(Cl)cc2c(c1Cl)CCC[C@H]2c1ccc2[nH]ncc2c1 [HANT-118]
The IC50 of the first is higher: 500 to 1000 nM for the first, 1 to 500 nM for the second.

N#Cc1cc2c(c(Cl)c1OCCCl)CCCC2c1ccc(O)cc1 (stereo not drawn) [HANT-105, 4-chloro-3-(2-chloroethoxy)-8-(4-hydroxyphenyl)-5,6,7,8-tetrahydronaphthalene-2-carbonitrile] and N#Cc1c2c(cc(Cl)c1OCCCl)C(c1ccc(O)cc1)CCC2 (stereo not drawn) [HANT-106, 3-chloro-2-(2-chloroethoxy)-5-(4-hydroxyphenyl)-5,6,7,8-tetrahydronaphthalene-1-carbonitrile] fall in the same range of IC50: 1 to 500 nM for the first, 1 to 500 nM for the second.

First: Oc1ccc(C2CCc3cc(OCCCl)c(Cl)cc32)cc1 (stereo not drawn) [HANT-107, 4-(6-chloro-5-(2-chloroethoxy)-2,3-dihydro-1H-inden-1-yl)phenol]
Second: Oc1ccc(C2CCc3c2ccc(OCCCl)c3Cl)cc1 (stereo not drawn) [HANT-108, 4-(4-chloro-5-(2-chloroethoxy)-2,3-dihydro-1H-inden-1-yl)phenol]
The IC50 of the first is higher: 1000 to 2000 nM for the first, 1 to 500 nM for the second. The second is the more potent here.

Compared with Oc1ccc(C2CCCc3c2cc(Cl)c(OCCCl)c3Cl)cc1F (stereo not drawn) [HANT-109], Oc1ccc(C2CCCc3c2cc(Cl)c(OCCCl)c3Cl)c(F)c1 (stereo not drawn) [HANT-110, 4-(5,7-dichloro-6-(2-chloroethoxy)-1,2,3,4-tetrahydronaphthalen-1-yl)-3-fluorophenol] is lower in IC50: 1000 to 2000 nM for the first, 1 to 500 nM for the second.

ClCCOc1c(Cl)cc2c(c1Cl)CCCC2c1ccc2[nH]cnc2c1 (stereo not drawn) [HANT-112] and ClCCOc1c(Cl)cc2c(c1Cl)CCCC2c1ccc2[nH]nnc2c1 (stereo not drawn) [HANT-113, 5-(5,7-dichloro-6-(2-chloroethoxy)-1,2,3,4-tetrahydronaphthalen-1-yl)-1H-benzo[d][1,2,3]triaz ole] fall in the same range of IC50: 500 to 1000 nM for the first, 500 to 1000 nM for the second.

First: O=c1[nH]c2ccc(C3CCCc4c3cc(Cl)c(OCCCl)c4Cl)cc2o1 (stereo not drawn) [HANT-114]
Second: Cn1c(=O)[nH]c2ccc(C3CCCc4c3cc(Cl)c(OCCCl)c4Cl)cc21 (stereo not drawn) [HANT-117]
The IC50 of the first is lower: 1 to 500 nM for the first, 1000 to 2000 nM for the second.

Compared with CN1CCc2c(cc(Cl)c(OCCCl)c2Cl)C1c1ccc(O)cc1 (stereo not drawn) [HANT-115, 4-(5,7-dichloro-6-(2-chloroethoxy)-2-methyl-1,2,3,4-tetrahydroisoquinolin-1-yl)phenol], COc1cc(O)ccc1C1CCCc2c1cc(Cl)c(OCCCl)c2Cl (stereo not drawn) [HANT-137] is higher in IC50: 1 to 500 nM for the first, 1000 to 2000 nM for the second.

CCCOc1c(C#N)cc2c(c1Cl)CCCC2Nc1ccc(OC)nc1 (stereo not drawn) [HANT-121] and N#Cc1cc2c(c(Cl)c1OCCCl)CCCC2Nc1ccc(OCCO)nc1 (stereo not drawn) [HANT-122] fall in the same range of IC50: 1 to 500 nM for the first, 1 to 500 nM for the second.

First: OC1CCN(C2CCCc3c2cc(Cl)c(OCCCl)c3Cl)CC1 (stereo not drawn) [HANT-123]
Second: ClCCOc1c(Cl)cc2c(c1Cl)CCCC2N1CCc2[nH]ncc2C1 (stereo not drawn) [HANT-125]
The IC50 of the first is higher: 500 to 1000 nM for the first, 1 to 500 nM for the second. The second is the more potent here.

Compared with Oc1ccc2c(c1)CCN(C1CCCc3c1cc(Cl)c(OCCCl)c3Cl)C2 (stereo not drawn) [HANT-124, 2-(5,7-dichloro-6-(2-chloroethoxy)-1,2,3,4-tetrahydronaphthalen-1-yl)-1,2,3,4-tetrahydroisoqui nolin-6-ol], ClCCOc1c(Cl)cc2c(c1Cl)CCCC2N1CCc2cn[nH]c2C1 (stereo not drawn) [HANT-126] is lower in IC50: > 2000 nM for the first, 500 to 1000 nM for the second. The second is the more potent here.

First: ClCCOc1c(Cl)cc2c(c1Cl)CCCN2c1ccc2[nH]ncc2c1 [HANT-127, 5,7-dichloro-6-(2-chloroethoxy)-1-(1H-indazol-5-yl)-1,2,3,4-tetrahydroquinoline]
Second: ClCCOc1c(Cl)cc2c(c1Cl)CCCN2c1cc2cn[nH]c2cn1 [HANT-164, 5,7-dichloro-6-(2-chloroethoxy)-1-(1H-pyrazolo[3,4-c]pyridin-5-yl)-1,2,3,4-tetrahydroquinoline]
The IC50 of the first is lower: 500 to 1000 nM for the first, > 2000 nM for the second.

First: Cn1ncc2cc(C3CCCc4c3cc(Cl)c(OCCCl)c4Cl)ccc21 (stereo not drawn) [HANT-131]
Second: ClCCOc1c(Cl)cc2c(c1Cl)CCCC2c1ccc2cn[nH]c2c1 (stereo not drawn) [HANT-134]
The IC50 of the first is higher: > 2000 nM for the first, 1 to 500 nM for the second. The second is the more potent here.

First: CNC(=O)c1n[nH]c2ccc(C3CCCc4c3cc(Cl)c(OCCCl)c4Cl)cc12 (stereo not drawn) [HANT-132, 5-(5,7-dichloro-6-(2-chloroethoxy)-1,2,3,4-tetrahydronaphthalen-1-yl)-N-methyl-1H-indazole-3-carboxamide]
Second: Nc1n[nH]c2ccc(C3CCCc4c3cc(Cl)c(OCCCl)c4Cl)cc12 (stereo not drawn) [HANT-133, 5-(5,7-dichloro-6-(2-chloroethoxy)-1,2,3,4-tetrahydronaphthalen-1-yl)-1H-indazol-3-amine]
The IC50 of the first is higher: > 2000 nM for the first, 1000 to 2000 nM for the second. The second is the more potent here.

First: O=C1Cc2cc(C3CCCc4c3cc(Cl)c(OCCCl)c4Cl)ccc2N1 (stereo not drawn) [HANT-135]
Second: N#Cc1cc2c(c(Cl)c1OCCCl)CCCC2c1ccc2[nH]ncc2c1 (stereo not drawn) [HANT-144A, 4-chloro-3-(2-chloroethoxy)-8-(1H-indazol-5-yl)-5,6,7,8-tetrahydronaphthalene-2-carbonitrile]
The IC50 of the first is lower: 1 to 500 nM for the first, > 2000 nM for the second. The first is the more potent here.

First: N#Cc1cc2c(c(Cl)c1OCCCl)CCCC2c1ccc2[nH]ncc2c1 (stereo not drawn) [HANT-144B, 4-chloro-3-(2-chloroethoxy)-8-(1H-indazol-5-yl)-5,6,7,8-tetrahydronaphthalene-2-carbonitrile]
Second: N#Cc1cc2c(c(Cl)c1OCCCl)CCCC2c1ccc2[nH]ncc2n1 (stereo not drawn) [HANT-148, 4-chloro-3-(2-chloroethoxy)-8-(1H-pyrazolo[4,3-b]pyridin-5-yl)-5,6,7,8-tetrahydronaphthalene-2-carbonitrile]
The IC50 of the first is lower: 1 to 500 nM for the first, 500 to 1000 nM for the second. The first is the more potent here.

Compared with N#Cc1cc2c(c(Cl)c1OCCCl)CCCC2c1cc2cn[nH]c2cn1 (stereo not drawn) [HANT-149], ClCCOc1c(Cl)cc2c(c1Cl)CCCN2c1cnc2[nH]ncc2c1 [HANT-166, 5,7-dichloro-6-(2-chloroethoxy)-1-(1H-pyrazolo[3,4-b]pyridin-5-yl)-1,2,3,4-tetrahydroquinoline] is higher in IC50: 1 to 500 nM for the first, 500 to 1000 nM for the second. The first is the more potent here.

First: ClCCOc1c(Cl)cc2c(c1Cl)CCCN2c1ccc2[nH]ncc2n1 [HANT-165, 5,7-dichloro-6-(2-chloroethoxy)-1-(1H-pyrazolo[4,3-b]pyridin-5-yl)-1,2,3,4-tetrahydroquinoline]
Second: N#Cc1cc2c(c(Cl)c1OCCCl)CCCC2Nc1ccc(N2CCOCC2)nc1 (stereo not drawn) [HANT-170]
The IC50 of the first is higher: > 2000 nM for the first, 500 to 1000 nM for the second. The second is the more potent here.
